Laboratory results as given in ChEMBL document CHEMBL5113463, “Discovery and preclinical evaluations of JBD0131, a novel nitrodihydro-imidazooxazole anti-tuberculosis agent” (Bioorg Med Chem Lett, 2022).
pIC50: −log10 of the molar value. ≈ marks a conversion by molar mass, not a printed value.

Legend:
[1] = target: T1, A-type voltage-gated potassium channel KCND3 (Homo sapiens, UniProt Q9UK17); experiment: Inhibition of Kv4.3 (unknown origin)
T1 sequence (Q9UK17 whole entry): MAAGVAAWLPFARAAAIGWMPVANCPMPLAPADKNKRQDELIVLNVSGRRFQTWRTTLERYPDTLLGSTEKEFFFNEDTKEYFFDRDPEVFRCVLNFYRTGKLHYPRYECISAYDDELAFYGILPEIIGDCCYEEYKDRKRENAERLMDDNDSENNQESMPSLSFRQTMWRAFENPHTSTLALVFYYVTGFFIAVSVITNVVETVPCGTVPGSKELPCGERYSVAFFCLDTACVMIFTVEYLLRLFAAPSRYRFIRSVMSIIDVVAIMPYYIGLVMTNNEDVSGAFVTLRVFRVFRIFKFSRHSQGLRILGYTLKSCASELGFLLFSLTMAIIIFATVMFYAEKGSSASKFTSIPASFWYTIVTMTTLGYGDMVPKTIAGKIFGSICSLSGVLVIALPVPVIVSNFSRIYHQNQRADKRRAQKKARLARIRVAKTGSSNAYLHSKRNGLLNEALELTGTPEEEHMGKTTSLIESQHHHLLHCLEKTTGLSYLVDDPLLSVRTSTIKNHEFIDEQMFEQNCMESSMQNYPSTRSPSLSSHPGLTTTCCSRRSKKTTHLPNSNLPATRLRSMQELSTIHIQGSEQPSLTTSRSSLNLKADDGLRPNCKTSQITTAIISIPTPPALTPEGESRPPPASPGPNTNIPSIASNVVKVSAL

[2] = Cytotoxicity against African green monkey vero cells assessed as reduction in cell viability; assay type: toxicity, cell-based; conditions: chlorocebus sabaeus
[3] = Drug distribution in Sprague-Dawley rat kidney at 10 mg/kg, po administered as C14-lableled compound and assessed as radioactivity; assay type: ADME, organism-based; conditions: in vivo
[4] = target: T2, Cytochrome P450 1A2 (Homo sapiens, UniProt P05177); experiment: Inhibition of CYP1A2 (unknown origin); assay type: ADME
T2 sequence (P05177 whole entry): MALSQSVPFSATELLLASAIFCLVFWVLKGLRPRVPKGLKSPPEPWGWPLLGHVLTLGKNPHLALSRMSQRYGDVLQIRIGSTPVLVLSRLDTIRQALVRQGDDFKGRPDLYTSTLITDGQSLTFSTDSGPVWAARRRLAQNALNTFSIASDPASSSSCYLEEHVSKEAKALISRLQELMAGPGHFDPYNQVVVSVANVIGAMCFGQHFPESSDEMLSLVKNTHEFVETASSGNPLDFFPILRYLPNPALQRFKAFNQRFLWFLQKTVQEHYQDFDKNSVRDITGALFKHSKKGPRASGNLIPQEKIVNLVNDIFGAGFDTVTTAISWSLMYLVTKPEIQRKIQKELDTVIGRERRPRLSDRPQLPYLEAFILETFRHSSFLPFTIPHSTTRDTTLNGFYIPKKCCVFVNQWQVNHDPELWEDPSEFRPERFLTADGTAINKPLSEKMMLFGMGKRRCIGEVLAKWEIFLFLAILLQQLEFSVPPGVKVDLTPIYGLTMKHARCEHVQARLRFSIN

[5] = Oral bioavailability in Beagle dog at 2 mg/kg; assay type: ADME, organism-based, Canis lupus familiaris; conditions: in vivo
[6] = Metabolic stability in rat liver microsomes assessed as half life; assay type: ADME, Microsome
[7] = Cmax in CD-1 mouse at 5 mg/kg, po; assay type: ADME, organism-based; design: dose 5 mg/kg, route po; conditions: in vivo
[8] = Aqueous solubility of compound at pH 2.0; assay type: physicochemical; conditions: buffer
[9] = Apparent permeability across basolateral to apical side in dog MDCK cells; assay type: ADME, cell-based, Canis lupus familiaris
[10] = Metabolic stability in cynomolgus monkey liver microsomes assessed as half life; assay type: ADME, Macaca fascicularis, Microsome
[11] = target: Cytochrome P450 2C9 (Homo sapiens, UniProt P11712); experiment: Inhibition of CYP2C9 (unknown origin); assay type: ADME
[12] = target: Sodium channel protein type 5 subunit alpha (Homo sapiens, UniProt Q14524); experiment: Inhibition of NaV 1.5 (unknown origin)
[13] = Clearance in Beagle dog at 0.5 mg/kg, iv; assay type: ADME, organism-based, Canis lupus familiaris; conditions: in vivo
[14] = target: Cytochrome P450 3A4 (Homo sapiens, UniProt P08684); experiment: Inhibition of CYP3A4 (unknown origin); assay type: ADME
[15] = Plasma protein binding in dog assessed as bound fraction; assay type: ADME, cell-free, Canis lupus familiaris; conditions: read-out: PPB (converted)
[16] = Apparent permeability across apical to basolateral side in dog MDCK cells; assay type: ADME, cell-based, Canis lupus familiaris
[17] = target: Voltage-gated inwardly rectifying potassium channel KCNH2 (Homo sapiens, UniProt Q12809); experiment: Inhibition of human ERG; assay type: toxicity
[18] = Clearance in Sprague-Dawley rat at 1 mg/kg, iv; assay type: ADME, organism-based; conditions: in vivo
[19] = Metabolic stability in dog liver microsomes assessed as half life; assay type: ADME, Canis lupus familiaris, Microsome
[20] = target: Cytochrome P450 2C19 (Homo sapiens, UniProt P33261); experiment: Inhibition of CYP2C19 (unknown origin); assay type: ADME
[21] = target: T3, Cytochrome P450 2B6 (Homo sapiens, UniProt P20813); experiment: Inhibition of CYP2B6 (unknown origin); assay type: ADME
T3 sequence (P20813 whole entry): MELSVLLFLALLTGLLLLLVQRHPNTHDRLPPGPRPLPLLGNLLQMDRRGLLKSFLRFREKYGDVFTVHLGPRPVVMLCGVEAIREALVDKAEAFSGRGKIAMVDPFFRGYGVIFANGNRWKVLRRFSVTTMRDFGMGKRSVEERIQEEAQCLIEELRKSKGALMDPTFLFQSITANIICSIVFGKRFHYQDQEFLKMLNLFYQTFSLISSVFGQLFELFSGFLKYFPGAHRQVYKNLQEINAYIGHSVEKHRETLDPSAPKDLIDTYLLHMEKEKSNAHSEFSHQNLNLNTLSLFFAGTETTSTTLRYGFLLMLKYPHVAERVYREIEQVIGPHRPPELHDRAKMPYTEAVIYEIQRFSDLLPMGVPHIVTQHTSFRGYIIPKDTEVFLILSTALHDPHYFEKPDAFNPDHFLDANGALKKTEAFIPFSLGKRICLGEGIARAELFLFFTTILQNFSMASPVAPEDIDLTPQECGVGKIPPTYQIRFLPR

[22] = system: Mycobacterium tuberculosis; experiment: In vivo antimycobacterial activity against Mycobacterium tuberculosis Erdman infected mouse chronic tuberculosis infection model assessed as reduction log10 CFU at 10 to 100 mg/kg for 4 weeks at 5 days/week administered after 31 days post infection relative to control; assay type: functional; conditions: dose 10-100 mg/kg
[23] = Volume of distribution in Sprague-Dawley rat at 1 mg/kg, iv; assay type: ADME, organism-based; conditions: in vivo
[24] = Oral bioavailability in Sprague-Dawley rat at 4 mg/kg; assay type: ADME, organism-based; conditions: in vivo
[25] = Oral bioavailability in CD-1 mouse at 5 mg/kg; assay type: ADME, organism-based; conditions: mouse, in vivo, po, 5 mg/kg
[26] = system: Mycobacterium tuberculosis; experiment: Antimycobacterial activity against clinical isolate drug susceptible Mycobacterium tuberculosis H37Rv assessed as bacterial growth inhibition; assay type: functional
[27] = Metabolic stability in mouse liver microsomes assessed as half life; assay type: ADME, Microsome
[28] = system: Mycobacterium tuberculosis; experiment: Antimycobacterial activity against Mycobacterium tuberculosis H37Rv assessed as bacterial growth inhibition incubated for 10 days under hypoxic condition followed by 28 hrs incubation under normoxic condition by Low-Oxygen-Recovery Assay; assay type: functional; conditions: 264 h, time 11 day
[29] = Half life in CD-1 mouse at 0.6 mg/kg, iv; assay type: ADME, organism-based; conditions: in vivo

Chain of Cytochrome P450 2C9 (P11712 whole entry): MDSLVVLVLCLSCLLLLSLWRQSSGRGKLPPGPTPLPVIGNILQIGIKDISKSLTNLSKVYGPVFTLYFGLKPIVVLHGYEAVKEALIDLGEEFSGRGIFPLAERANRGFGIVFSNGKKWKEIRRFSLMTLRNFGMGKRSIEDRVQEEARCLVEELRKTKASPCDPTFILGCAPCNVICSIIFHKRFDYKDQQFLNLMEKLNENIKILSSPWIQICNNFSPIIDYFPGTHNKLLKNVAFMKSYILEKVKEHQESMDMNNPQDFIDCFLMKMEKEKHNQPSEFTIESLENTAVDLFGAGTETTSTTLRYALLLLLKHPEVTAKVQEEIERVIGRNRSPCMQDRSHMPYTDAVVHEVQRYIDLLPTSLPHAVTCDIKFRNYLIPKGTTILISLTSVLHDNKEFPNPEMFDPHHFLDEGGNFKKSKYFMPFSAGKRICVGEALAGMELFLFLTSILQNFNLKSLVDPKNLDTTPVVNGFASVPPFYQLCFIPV
Chain of Cytochrome P450 2C19 (P33261 whole entry): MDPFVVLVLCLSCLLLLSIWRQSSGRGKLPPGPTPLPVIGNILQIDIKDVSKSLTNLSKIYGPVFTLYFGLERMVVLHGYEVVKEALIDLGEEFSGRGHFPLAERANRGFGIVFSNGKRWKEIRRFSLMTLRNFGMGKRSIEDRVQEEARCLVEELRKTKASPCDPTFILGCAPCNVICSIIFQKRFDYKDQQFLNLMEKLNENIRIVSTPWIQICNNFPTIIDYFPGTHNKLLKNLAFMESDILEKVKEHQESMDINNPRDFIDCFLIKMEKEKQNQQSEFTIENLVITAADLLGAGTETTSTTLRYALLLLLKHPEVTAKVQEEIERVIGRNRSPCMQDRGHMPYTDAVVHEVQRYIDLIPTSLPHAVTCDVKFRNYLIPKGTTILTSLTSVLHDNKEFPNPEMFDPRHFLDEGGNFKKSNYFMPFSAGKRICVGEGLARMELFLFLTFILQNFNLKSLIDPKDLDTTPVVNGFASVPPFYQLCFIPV
Chain of Cytochrome P450 3A4 (P08684 whole entry): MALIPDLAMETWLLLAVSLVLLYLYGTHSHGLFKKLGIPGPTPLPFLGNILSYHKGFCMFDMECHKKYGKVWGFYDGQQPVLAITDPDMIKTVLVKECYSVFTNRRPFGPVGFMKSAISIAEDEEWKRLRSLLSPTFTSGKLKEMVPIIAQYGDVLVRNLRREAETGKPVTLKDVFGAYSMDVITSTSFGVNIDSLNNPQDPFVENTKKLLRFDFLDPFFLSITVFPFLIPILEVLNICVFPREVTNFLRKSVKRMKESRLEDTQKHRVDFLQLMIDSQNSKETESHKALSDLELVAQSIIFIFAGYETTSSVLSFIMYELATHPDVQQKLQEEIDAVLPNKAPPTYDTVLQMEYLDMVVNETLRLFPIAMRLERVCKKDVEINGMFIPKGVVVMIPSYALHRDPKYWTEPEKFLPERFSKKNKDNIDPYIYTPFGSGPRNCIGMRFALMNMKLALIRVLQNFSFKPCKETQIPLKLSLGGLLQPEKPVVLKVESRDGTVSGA
Chain of Sodium channel protein type 5 subunit alpha (Q14524 whole entry): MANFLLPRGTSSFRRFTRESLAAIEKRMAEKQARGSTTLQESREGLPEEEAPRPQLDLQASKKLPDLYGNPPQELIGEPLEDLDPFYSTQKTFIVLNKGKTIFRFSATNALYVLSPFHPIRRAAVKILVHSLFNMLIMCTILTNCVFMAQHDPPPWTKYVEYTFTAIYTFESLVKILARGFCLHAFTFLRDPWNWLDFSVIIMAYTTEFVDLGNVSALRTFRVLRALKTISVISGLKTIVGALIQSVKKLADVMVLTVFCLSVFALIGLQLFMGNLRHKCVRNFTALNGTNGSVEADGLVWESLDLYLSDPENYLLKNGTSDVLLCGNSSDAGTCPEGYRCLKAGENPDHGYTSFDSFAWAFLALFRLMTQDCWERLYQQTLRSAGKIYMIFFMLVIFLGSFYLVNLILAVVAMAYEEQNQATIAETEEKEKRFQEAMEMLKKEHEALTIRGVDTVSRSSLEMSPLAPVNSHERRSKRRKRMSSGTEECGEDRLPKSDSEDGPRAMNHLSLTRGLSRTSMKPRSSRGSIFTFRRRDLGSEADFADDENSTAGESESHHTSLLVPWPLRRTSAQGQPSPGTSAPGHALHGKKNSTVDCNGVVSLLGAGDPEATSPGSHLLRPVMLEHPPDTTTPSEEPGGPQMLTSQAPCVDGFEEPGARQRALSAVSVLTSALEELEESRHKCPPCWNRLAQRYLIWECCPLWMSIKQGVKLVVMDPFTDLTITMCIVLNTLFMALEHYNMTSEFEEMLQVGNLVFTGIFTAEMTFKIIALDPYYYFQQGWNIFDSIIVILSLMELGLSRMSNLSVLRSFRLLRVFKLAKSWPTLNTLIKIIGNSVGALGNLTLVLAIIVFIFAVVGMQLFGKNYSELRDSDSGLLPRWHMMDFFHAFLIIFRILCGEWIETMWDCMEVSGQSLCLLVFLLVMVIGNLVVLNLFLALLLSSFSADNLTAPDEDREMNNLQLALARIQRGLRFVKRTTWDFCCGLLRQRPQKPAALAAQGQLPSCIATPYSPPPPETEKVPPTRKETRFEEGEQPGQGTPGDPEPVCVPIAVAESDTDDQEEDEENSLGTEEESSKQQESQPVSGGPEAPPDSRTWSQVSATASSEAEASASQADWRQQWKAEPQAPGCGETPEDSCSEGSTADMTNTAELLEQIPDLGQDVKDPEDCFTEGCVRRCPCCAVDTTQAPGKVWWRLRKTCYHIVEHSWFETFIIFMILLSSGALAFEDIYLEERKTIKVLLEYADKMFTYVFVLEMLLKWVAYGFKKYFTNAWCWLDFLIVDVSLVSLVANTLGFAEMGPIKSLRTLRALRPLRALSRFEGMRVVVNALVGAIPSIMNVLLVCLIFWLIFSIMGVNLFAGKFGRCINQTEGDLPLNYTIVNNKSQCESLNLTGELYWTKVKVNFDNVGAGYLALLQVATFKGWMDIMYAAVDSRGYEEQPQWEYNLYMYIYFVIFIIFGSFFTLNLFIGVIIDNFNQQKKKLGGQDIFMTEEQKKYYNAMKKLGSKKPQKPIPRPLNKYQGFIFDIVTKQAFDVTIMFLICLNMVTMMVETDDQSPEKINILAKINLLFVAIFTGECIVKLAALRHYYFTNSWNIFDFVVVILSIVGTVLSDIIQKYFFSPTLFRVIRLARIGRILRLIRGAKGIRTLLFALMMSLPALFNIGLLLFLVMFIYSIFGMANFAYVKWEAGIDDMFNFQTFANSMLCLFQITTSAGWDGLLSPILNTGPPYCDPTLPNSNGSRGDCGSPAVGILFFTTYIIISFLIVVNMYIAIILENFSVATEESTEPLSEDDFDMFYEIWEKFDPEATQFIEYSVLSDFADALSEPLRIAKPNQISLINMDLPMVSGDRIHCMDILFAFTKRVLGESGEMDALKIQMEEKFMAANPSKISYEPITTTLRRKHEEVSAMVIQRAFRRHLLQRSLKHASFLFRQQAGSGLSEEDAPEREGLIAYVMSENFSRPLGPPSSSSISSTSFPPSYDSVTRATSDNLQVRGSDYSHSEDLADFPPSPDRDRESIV
Chain of Voltage-gated inwardly rectifying potassium channel KCNH2 (Q12809 whole entry): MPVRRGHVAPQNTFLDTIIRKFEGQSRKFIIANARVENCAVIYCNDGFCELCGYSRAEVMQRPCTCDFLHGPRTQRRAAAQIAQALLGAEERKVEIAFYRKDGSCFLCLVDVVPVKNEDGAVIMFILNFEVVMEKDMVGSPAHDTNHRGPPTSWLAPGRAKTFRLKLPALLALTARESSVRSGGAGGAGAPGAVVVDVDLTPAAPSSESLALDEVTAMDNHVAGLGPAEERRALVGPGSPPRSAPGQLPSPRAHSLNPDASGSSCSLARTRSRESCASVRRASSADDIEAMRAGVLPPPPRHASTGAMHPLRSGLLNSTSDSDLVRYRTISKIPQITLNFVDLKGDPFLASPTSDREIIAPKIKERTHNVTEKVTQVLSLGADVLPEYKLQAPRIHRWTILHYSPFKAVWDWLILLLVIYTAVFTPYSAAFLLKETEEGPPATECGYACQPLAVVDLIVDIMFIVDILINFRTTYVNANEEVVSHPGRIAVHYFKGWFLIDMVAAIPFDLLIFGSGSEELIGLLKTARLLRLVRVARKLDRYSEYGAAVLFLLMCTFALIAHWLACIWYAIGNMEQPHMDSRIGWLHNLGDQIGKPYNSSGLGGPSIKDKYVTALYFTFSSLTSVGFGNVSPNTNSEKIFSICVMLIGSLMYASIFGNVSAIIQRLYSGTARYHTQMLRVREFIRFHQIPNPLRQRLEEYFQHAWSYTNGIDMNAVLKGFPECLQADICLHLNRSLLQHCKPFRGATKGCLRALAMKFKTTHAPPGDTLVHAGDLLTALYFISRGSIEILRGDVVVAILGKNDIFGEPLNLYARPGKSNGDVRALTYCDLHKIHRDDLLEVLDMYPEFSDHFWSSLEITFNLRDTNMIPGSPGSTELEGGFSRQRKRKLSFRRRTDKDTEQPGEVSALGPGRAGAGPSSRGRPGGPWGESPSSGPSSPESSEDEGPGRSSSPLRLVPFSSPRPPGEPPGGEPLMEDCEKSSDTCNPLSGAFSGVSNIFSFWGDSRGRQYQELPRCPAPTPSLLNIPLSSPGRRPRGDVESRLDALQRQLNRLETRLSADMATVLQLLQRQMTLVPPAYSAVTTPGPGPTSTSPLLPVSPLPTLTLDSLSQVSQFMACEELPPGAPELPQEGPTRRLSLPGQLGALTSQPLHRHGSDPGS

Structure (SMILES): C[C@]1(CN2Cc3nc(-c4ccc(F)cc4)sc3C2)CN=C(N)O1
- pIC50 [1]: < 4.88
- CC50 [2]: > 32 µg/mL
- Drug uptake [3]: Active
- pIC50 [4]: < 4.00
- bioavailability [5]: 26.4%
- half-life [6]: 1.13 h
- Cmax [7]: 753 ng/mL
- solubility [8]: 32.2 µM (≈ 10.7 µg/mL)
- Papp B→A [9]: 15.8 ×10⁻⁶ cm/s
- half-life [10]: 1.25 h
- pIC50 [11]: < 4.00
- pIC50 [12]: < 4.88
- clearance [13]: 12 mL/min/kg
- pIC50 [14]: < 4.00
- fraction unbound [15]: 0.036
- Papp A→B [16]: 20.9 ×10⁻⁶ cm/s
- pIC50 [17]: < 4.88
- clearance [18]: 24.6 mL/min/kg
- half-life [19]: 2.52 h
- pIC50 [20]: < 4.00
- pIC50 [21]: < 4.00
- Activity [22]: 1 log10CFU
- Vd [23]: 5.56 L/kg
- bioavailability [24]: 66.9%
- F [25]: 31.2%
- MIC50 [26]: 0.012 µg/mL (≈ 0.0361 µM)
- MIC90 [26]: 0.03 µg/mL (≈ 0.0903 µM)
- half-life [27]: 1.05 h
- MIC [28]: 5.63 µg/mL (≈ 16.9 µM)
- half-life [29]: 3.25 h
